# From patent US5366726A (priority 1992, dated 1994)
# Legend:
# Pneumocystis carinii [1] = conditions: in vivo; cited from earlier work
# [2] = TMP-SMX oral or parenteral; pentamidine isethionate parenteral; cited from earlier work
# Pneumocystis carinii [3] = conditions: human, in vivo; cited from earlier work
# Pneumocystis carinii [4] = experiment: Example 8: randomized clinical trial, prevention of PCP; format: in vivo, human; conditions: AZT use
smiles,measurement,setting,value
"NCCC[C@](N)(C(=O)O)C(F)F [DFMO, α-difluoromethylornithine]",efficacy in rat PCP model,Pneumocystis carinii [1],not efficacious
N=C(N)c1ccc(OCCCCCOc2ccc(C(=N)N)cc2)cc1 [pentamidine isethionate],patients developing severe toxicity requiring discontinuation,[2],approximately 50%
COc1cc(NCc2ccc3nc(N)nc(N)c3c2C)cc(OC)c1OC [trimetrexate],relapse rates within one month,Pneumocystis carinii [3],high
Cc1cn([C@H]2C[C@H](N=[N+]=[N-])[C@@H](CO)O2)c(=O)[nH]c1=O [zidovudine],"independent reduction of PCP risk, Cox models",Pneumocystis carinii [4],two-fold
